This note sets out measurements from US8835466B2, “Synthesis and uses of pyroglutamic acid derivatives” (Prodimed, S.A., priority 2006, dated 2014).

The test system of experiment [1] is CD11b and Ly6G positive leukocyte populations. Nature of the experiment: Phenotype leukocyte analysis by flow cytometry (CD11b, Ly6G) in peripheral blood (Example 16). Type of experiment: in vivo, Balb/c mice. On the procedure: This Example was carried out with the aim at assessing eventual differences in the leukocyte population percentage among the treated mice by flow cytometry. The counts were carried out by using a flow cytometer after labelling membrane proteins (CD11B and Ly6G) with specific antibodies to said proteins. CD11B (also known as Mac-1) marker is expressed in monocyte populations whereas Ly6G (also known as GR-1) is expressed in granulocyte populations. Both markers (CD11b and Ly6G) are expressed in neutrophile populations.
Isomer 4 (compound 9d) at 65 μg/mL in sterile physiological saline.
Equipment Laminar flood hood, Flow cytometer, Adjustable pipettes, Sterile syringes, Sterile needles, EDTA stelile tubes, Plastic tubes. Reagents • Anaesthetic solution • Sterile PBS (Sigma, St. Louis, Mo., USA) • Physiological saline (Grifols, Barcelona, Spain) • Rat anti-mouse CD11b-PE (Beckman Coulter, Fullerton, Calif., USA) • Rat anti-mouse Ly6G-FITC (Beckman Coulter, Fullerton, Calif., USA) • Optylise C (Beckman Coulter, Fullerton, Calif., USA) Dose, Vehicle, Route and Volume Administration Dose Isomer 4 (compound 9d) was tested at the dose levels of 250 ng administered on days 0, and 7. Vehicle The vehicle in which Isomer 4 was diluted is physiological saline. Administration Route and Volume
The treatments were given by intraperitoneal route. The volume inoculated was 200 μl/animal.
Balb/c mice were distributed into 2 experimental groups:
Three days after the last dose of the treatment, murine blood was isolated. It was obtained directly from intracardiac punction. Previously, mice were anesthetized intramuscularly.
Blood was mixed with the monoclonal antibodies described above.
After 20 minutes of incubation, Optylise C solution was added into the samples to lise erythrocytes population.
Finally, samples were diluted ½ with 1× sterile PBS and checked by flow cytometry.
Percentages of each population analyzed were expressed as single values and as the mean±SD from each experimental group.
Background: Flow cytometry measures light scatter and fluorescence of single cells or particles in a stream.

Experiment [2] deals with CT26.CL25 (colon carcinoma). The experiment can be described thus: Effect of isomer 4 (9d) on tumour growth, CT26.CL25 (Example 10). Type of experiment: in vivo. Conditions: CT26.CL25 (Low dose colon carcinoma); Balbc/cByl mice; 250 ng/mice i.p. days 6, 7 and 14. On the procedure:
(§1) The following assays were made in order to check the effect of isomer 4 (9d) on different tumours following methods and materials analogous to those used in examples 8 and 9, In all cases sterile physiologic saline (Grifols, Barcelona, Spain) was used as placebo. Isomer 4 (9d) was tested at the dose levels indicated in Table 13 on days 6, 7 and 14 after tumour inoculation. In all cases the vehicle was physiologic saline and the treatments were given by intraperitoneal route. The volume inoculated was 0.2 mL/animal.

Experiment [3] relates to Lewis (lung carcinoma). Nature of the experiment: Effect of isomer 4 (9d) on tumour growth, Lewis (Example 10). The format is in vivo. To be noted: Lewis (low dose lung carcinoma); C57BL/6NCrI mice; 260 ng/mice i.p. days 6, 7 and 14. The protocol: as §1
Where [4] appears, read: Balb/C mice, two doses (once per week) 250 ng i.p., flow cytometry three days after the last dose.
[5] abbreviates: group mean, n = 4, 250 ng i.p. on days 0 and 7, blood three days after the last dose.
Where [6] appears, read: individual mice, 250 ng i.p. on days 0 and 7, blood three days after the last dose, listed as 9d.

SMILES strings stand for the structures. Several values for one entry are separate records, joined by “and”; a condition that tells them apart may be missing. Equal entries are not always repeated.

Turning to `Br.N[C@]1(C[n+]2ccccc2)C[C@H](C(=O)O)NC1=O.[Br-]` (single isomer, unassigned; isomer 4) [isomer 4, 3S,5R-1-(3-Amino-5-carboxy-2-oxopyrrolidin-3-ylmethyl)pyridinium bromide hidrobromide], in experiment [1] (setting [4]), the “CD11b positive cells in peripheral blood compared with control mice” value is “increment”, the “CD11b+Ly6G positive cells in peripheral blood compared with control mice” value is listed as “increment” and the “Ly6G positive cells in peripheral blood compared with control mice” value is given as “increment”. Besides, in experiment [1] (setting [5]), the “CD11b+ cells, PBL (Peripheral Blood), flow cytometry, Media” value turned out to be 36.95%; the “CD11b+Ly6G+ cells, PBL (Peripheral Blood), flow cytometry, Media” value turned out to be 31.05%; the “Ly6G+ cells, PBL (Peripheral Blood), flow cytometry, Media” value was determined as 34.775%. In addition, in experiment [1] (setting [6]), the “CD11b+ cells, PBL (Peripheral Blood), flow cytometry” value was 35.5% and 44% and 35.4% and 32.9%; the “CD11b+Ly6G+ cells, PBL (Peripheral Blood), flow cytometry” value was 29.7% and 32.3% and 28.5% and 33.7%; the “Ly6G+ cells, PBL (Peripheral Blood), flow cytometry” value is 27% and 37.6% and 33.3% and 41.2%. In addition, the “Tumour growth inhibition?” value in experiment [2] is on record as “YES”. Also, the “Tumour growth inhibition?” value in experiment [3] is on record as “YES”.
